Results published in patent publication US9050269B2, “Protection of virus particles from phagocytosis by expression of CD47” (priority 2009, dated 2015).

Key:
THP-1 macrophages [1] = assay: SHP-1 inhibitor effect on phagocytosis of IgG-opsonized particles; type: cell-based, human
Protocol: For phagocytosis assays with CD47 attached particles at 100 nm to 1.1 μm diameter were IgG-opsonizied. THP-1 macrophage, PMA activated were treated with 0-0.5 μM NSC-87877 an SHP-1 Inhibitor (gift from Frank L. Conlon) 5 minutes prior to the addition of IgG-opsonizied particles. Phagocytosis assay occurred at 37° C. for 45 minutes and then fixed for 5 minutes with 5% formaldehyde as described for the phagocytosis assay (Fisher Scientific).
In order to specifically block SHP-1, an inhibitor NSC-87877 was used with a reported high specificity to SHP-1 (Chen et al., 2006, Mol. Pharmacol. 70(2):562-70; Langdon et al., 2007, Development 134(22):4119-30). […] The uptake of these particles was measured as the number of particles ingested per phagocyte.

SHP-1 = SHP-1 (Homo sapiens, UniProt P29350); conditions: reported, Chen et al., 2006; cited from earlier work
Chain of SHP-1 (P29350 whole entry): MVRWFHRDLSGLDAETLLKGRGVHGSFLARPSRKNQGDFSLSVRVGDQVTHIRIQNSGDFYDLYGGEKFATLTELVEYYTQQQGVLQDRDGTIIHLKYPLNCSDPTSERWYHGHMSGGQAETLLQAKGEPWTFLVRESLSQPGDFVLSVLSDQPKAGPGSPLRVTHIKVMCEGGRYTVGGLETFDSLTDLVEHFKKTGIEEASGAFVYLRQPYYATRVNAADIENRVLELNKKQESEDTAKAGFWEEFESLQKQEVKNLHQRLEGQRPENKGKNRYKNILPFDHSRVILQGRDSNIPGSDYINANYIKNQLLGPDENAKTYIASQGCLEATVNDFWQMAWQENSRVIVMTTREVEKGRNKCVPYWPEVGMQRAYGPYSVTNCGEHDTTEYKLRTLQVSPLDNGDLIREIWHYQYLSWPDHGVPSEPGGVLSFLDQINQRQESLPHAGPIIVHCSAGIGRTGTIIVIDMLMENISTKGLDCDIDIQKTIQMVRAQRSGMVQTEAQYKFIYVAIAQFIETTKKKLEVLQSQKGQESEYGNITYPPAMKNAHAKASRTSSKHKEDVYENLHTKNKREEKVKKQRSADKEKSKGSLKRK

THP-1 macrophages [2] = assay: Phagocytosis of IgG-opsonized streptavidin beads with or without hCD47 by THP-1 macrophages; type: cell-based, human
Protocol: The extracellular immunoglobulin-like domains of human CD47 (hCD47) was recombinantly expressed with a spacer domain (Brown et al., 1994, Protein Eng. 7:515-21; Brown et al., 1998, J. Exp. Med. 188:2083-90) plus a C-terminal biotinylation site. […] The beads were opsonized by pretreatment with anti-streptavidin to again induce FcR-mediated phagocytosis (for 45 minutes at 37° C.), and non-engulfed beads were detected with a flourescein anti-Fc against the IgG-opsonin. The number of adherent IgG-opsonized beads per phagocyte was independent of hCD47 (not shown).
Human CD47 gave a Ki at high opsonin of 20 CD47/μm^2, which appears ˜10-fold less than normal human RBC densities of CD47. […] A higher baseline level of bead phagocytosis versus RBCs could redirect the fact that stiffer targets are more readily engulfed (Beningo et al., 2002, J. Cell Sci. 115:849-856).
For phagocytosis assays, macrophages were plated in 4 cm^2, or 2 cm^2 Lab-Tek II Chambered Coverglass (Nalge Nunc International, Naperville, Ill.) at 1.5×10^5/cm^2. Streptavidin polystyrene beads of different radius: 3.5 μm, 1.1 μm, 160 nm (Spherotech) and 100 nm (Ademtech) were added to macrophages at a ratio of 2:1, 20:1, 277:1, and 2206:1 respectively and incubate at 37° C. for 45 min. […] Non-phagocytosed beads were washed with PBS. Cells were fixed with 5% formaldehyde (Fisher Scientific) for 5 minutes, followed by immediate replacement with PBS. For differentiation of non-internalized beads, beads were labeled with a primary antibody, rabbit anti-streptavidin (Sigma) at 1:1000 in PBS for 20 min at 25° C. A second antibody, anti-rabbit R-PE (Sigma) was added at 1:1000 in PBS to the cells and incubated for an additional 20 minutes at 25° C. Cells were then washed with PBS/0.4% BSA and then quantified by light and fluorescent microscopy. At least 200 cells were scored per well and experiments were repeated at least three times. […]
Beads were opsonized at saturating densities of IgG, and over a 20-fold range of CD47 densities, the number of internalized beads per THP-1 was measured. […]

THP-1 macrophages [3] = assay: Phagocytosis of IgG-opsonized sheep RBCs by THP-1 macrophages; type: cell-based, human
From the text: Phagocytosis by the human-derived THP-1 macrophages of IgG-opsonized RBCs was studied by imaging in DIC microscopy. […] RBC membranes were prelabeled with PKH26, and non-engulfed RBCs were labeled with a fluorescein-labeled antibody against the Fc of the IgG-opsonin.
To more directly assess the function of the IIA isoform, the effects of both knockdown and overexpression were functionally studied.

THP-1 macrophages [4] = type: cell-based, human
[5] = test system: A549 human lung epithelial cells; type: cell-based; conditions: blebbistatin at various concentrations; MOI 270
[6] = test system: non-muscle myosin IIA at the phagocytic synapse of THP-1 macrophages; assay: Protein localization to the phagocytic synapse (immunofluorescence); type: cell-based, human; conditions: blebbistatin 50 μM, 10 min pre-incubation
Protocol: […] Opsonized beads of different sizes were added to THP-1 cells, PMA treated and immediately placed at 4° C. for 10 min to synchronize phagocytosis. […] For studies involving blebbistatin (EMD Biosciences), macrophages were treated for 10 min at 4° C. prior to temperature increase to 37° C. or for 45 min and 37° C. Macrophages treated with DMSO were used to verify no solvent effects.
Immunostaining was performed by permeabilization with 0.1% Triton X-100 in PBS for 20 min before blocking for 1 h with 5% BSA in PBS. Staining with primary antibodies was carried out for 1 h at room temperature in PBS. Following washing, samples were incubated with appropriate PE-conjugated secondary antibodies (1:1000). To label cytoskeletal proteins at the phagocytic synapse, primary Ab's prepared with Zenon Alexa 488 or Zenon Alexa 647 Fab labeling kits (Invitrogen) labeled for 45 min at room temperature. Cells were immediately fixed using 5% formaldehyde for 20 minutes and washed with PBS. Samples were analyzed by differential interference contrast (DIC) and fluorescence microscopy.
Images were acquired with an inverted microscope (Olympus; IX71) with a 60× (oil, 1.4 NA) objective using a Cascade CCD camera (Photometrics, Tuscon, Ariz.). Image acquisition was performed with Image Pro software (Media Cybernetics, Silver Spring, Md.). […]

Structure (SMILES) | particles ingested per phagocyte, hCD47 particles (THP-1 macrophages [1]; 62.5 nM NSC-87877, 100 nm IgG-opsonized particles with hCD47) | particles ingested per phagocyte, beads without hCD47 (THP-1 macrophages [1]; 62.5 nM NSC-87877, 100 nm IgG-opsonized particles without hCD47) | particles ingested per phagocyte, hCD47 particles (THP-1 macrophages [1]; NSC-87877, 1.1 μm IgG-opsonized particles with hCD47) | IC50 (SHP-1) | uptake of IgG-opsonized particles by THP-1 (THP-1 macrophages [2]; 50 μM blebbistatin, 100 nm particles, vs DMSO) | uptake of IgG-opsonized particles by THP-1 (THP-1 macrophages [2]; blebbistatin, 1.1 μm particles) | phagocytosis of CD47-null beads (THP-1 macrophages [2]; blebbistatin, uncoated approximately 2.1 μm beads) | inhibition of ShRBC phagocytosis by GFP-NMM IIA expressing THP-1 (THP-1 macrophages [3]; 5 μM blebbistatin) | engulfment of sheep RBCs by THP-1 macrophages (THP-1 macrophages [3]; compared with CD47 on human RBCs) | Ki (THP-1 macrophages [3]; dose-response, sheep RBCs engulfed by THP-1 macrophages, read-out: Ki-blebb for blebbistatin inhibition of phagocytosis) | transduction of control lentiviral particles (THP-1 macrophages [4]; 50 μM Blebbistatin vs DMSO) | transduction of overexpressed hCD47 lentiviral particles (THP-1 macrophages [4]; 50 μM Blebbistatin vs DMSO) | transduction efficiency of control lentivirus (THP-1 macrophages [4]; blebbistatin at various concentrations, MOI 700) | lentivirus transduction in A549 cells [5] | enrichment of NMM IIA at synaptic contacts with sheep RBC targets [6]
O=S(=O)(O)c1ccc2cc(N=Nc3cc(S(=O)(=O)O)c4cccnc4c3O)ccc2c1 [NSC-87877] | an increase of ingested particles | no statistical difference | increase in uptake comparable to uncoated IgG-opsonizied particles | 500 nM | – | – | – | – | – | – | – | – | – | – | –
Cc1ccc2c(c1)C(=O)C1(O)CCN(c3ccccc3)C1=N2 (stereo not drawn) [blebbistatin] | – | – | – | – | decrease in uptake | comparable results | inhibited phagocytosis of CD47-null beads to a level similar as hCD47 beads | ~50% | inhibited | 5000 nM | inhibited transduction | no changes were observed | dose dependent response | no effect | inhibited enrichment of NMM IIA
